In patent US20220378776A1, “DRUG COMBINATION OF QUINOLINE DERIVATIVE AND PD-1 MONOCLONAL ANTIBODY” (CHIA TAI TIANQING PHARMACEUTICAL GROUP CO., LTD, priority 2019, published 2022):

Assays:
[1] = phase 2 clinical trial; cited from earlier work
advanced NSCLC = settings: phase 3, Chinese patients; cited from earlier work
[2] = Expected steady state exposure of sintilimab 200 mg Q3W; format: in vivo
Procedure: In some embodiments of the present application, sintilimab is administered at a single dose of 200 mg by intravenous infusion, once every 3 weeks, and every 3 weeks is a treatment cycle.
The selection of the administration mode of sintilimab in this study was mainly based on the data of safety and exposure (concentration)-response (PD-1 receptor occupancy) relationship in the currently completed preliminary studies, combined with the preclinical in vitro/in vivo efficacy and related comparison data of similar drugs.

| Compound | overall survival [1] | progression-free survival [1] | overall survival (advanced NSCLC) | progression-free survival (advanced NSCLC) | tolerability (advanced NSCLC) | time of continuous administration to reach steady state ([2]; 200 mg Q3W (4 times)) [days] | mean steady state trough concentration ([2]; 200 mg Q3W continuously for 84 days (4 times)) |
| --- | --- | --- | --- | --- | --- | --- | --- |
| COc1cc2c(Oc3ccc4[nH]c(C)cc4c3F)ccnc2cc1OCC1(N)CC1 [anlotinib, 1-[[[4-(4-fluoro-2-methyl-1H-indol-5-yl)oxy-6-methoxyquinolin-7-yl]oxy]methyl]cyclopropylamine] | potential benefit in overall survival | improve progression-free survival | prolonged | prolonged | well tolerated | – | – |
| sintilimab: anti-PD-1 human IgG4 monoclonal antibody; heavy chain SEQ ID NO: 10, light chain SEQ ID NO: 9; antibody D of CN108473977A | – | – | – | – | – | 84 | about 26 μg/mL |
